Values of other authors in US12589095B2, “Unit dosage form for transmucosal drug delivery of an active pharmaceutical ingredient” (Primo Pharmatech LLC, priority 2019, dated 2026).

Settings: known / published value; cited from earlier work
In the case of Glyceryl dioleate, the HLB is given as 1.8. In the case of `CCCCCCCCCCCCCCCCCC(=O)OCCOCCO` [Diethylene glycol monostearate], the HLB is listed as 4.3. For Polyoxyethylene sorbitol wax derivative, the HLB is given as 2.0. In the case of “Polyoxyethylene monostearate [Polyoxyethylene monostearate (Myrj 45)]”, the HLB is listed as 10.8. For Polyethylene glycol 400 monolaurate, the HLB is given as 12.8. For “Polyethylene lauryl ether [Polyethylene lauryl ether (Brij 30)]”, the HLB is listed as 8.6. For `CCCCCCCC/C=C\CCCCCCCC(=O)[O-].[Na+]` [Sodium oleate], the HLB is listed as 16.9. In the case of `CCCCCCCCCCCC(=O)OCCOCCO` [Diethylene glycol monolaurate], the HLB is given as 5.5. For `CCCCCCCC/C=C\CCCCCCCC(=O)O` [Oleic acid], the HLB is listed as 1.0. In the case of `CCCCCCCCCCCCCCCCCC(=O)OCC(O)CO` (stereo not shown) [Glyceryl monostearate], the HLB is listed as 2.1. In the case of sorbitan monooleate [Span 80], the HLB is listed as 4.3. In the case of `CCCCCCCC/C=C\CCCCCCCC(=O)[O-].[K+]` [Potassium oleate], the HLB is listed as 18.0. In the case of Sorbitan monolaurate [SPAN 20], the HLB is given as “SPAN 20 (HLB8.6)”. In the case of `CCCCCCCCCCCCCCCCCC(=O)OCC(O)CO` (stereo not shown) [Glyceryl monostearate (Tegin), Glyceryl monostearate], the HLB is given as 4.7. For `CCCCCCCC/C=C\CCCCCCCC(=O)OCC(O)CO` (stereo not shown) [Glyceryl monooleate], the HLB is listed as 3.4. For “Polyoxyethylene lauryl ether [Polyoxyethylene lauryl ether (G-3705)]”, the HLB is given as 10.5.

Same assay, conditions: known / published value; listed as Oleic Acid; cited from earlier work
In the case of `CCCCCCCC/C=C\CCCCCCCC(=O)O` [Oleic acid], the HLB is listed as 1.

Same assay, conditions: known / published value; listed as Sorbitan mono-oleate (Span 80); cited from earlier work
In the case of sorbitan monooleate [Span 80], the HLB is given as 3.8.

Same assay, conditions: known / published value; listed as Sorbitan monolaurate (Span 20); cited from earlier work
In the case of Sorbitan monolaurate [SPAN 20], the HLB is given as 6.1.
